# Assay results as given in the METLIN SMRT retention time set (Domingo-Almenara et al. 2019).
# Assay: gradient 5% acetonitrile 3 min, to 50% in 2 min, to 85% in 15 min, held 3 min, 100 µL/min
# Conditions: column: Zorbax Extend-C18 2.1 x 50 mm; eluents: water / acetonitrile, 0.1% formic acid
# Summary of the method: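 Retention times come from adduct peaks that were picked computationally and then checked by hand. The standards, pure and pooled in mixtures of ~100 molecules, were run on a Zorbax Extend-C18 column (2.1 × 50 mm, 1.8 μm) at 100 μL/min with water and acetonitrile, each with 0.1% formic acid. Detection was by quadrupole time-of-flight mass spectrometry in positive and negative ionization mode, with a dead volume of 40 μL and a dwell volume of 900 μL.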
row,SMILES,RP-LC retention time
1,COc1ccc(-c2noc(C3CCCN3C(=O)Nc3ccc(F)cc3F)n2)cc1 (centres undefined),963 s
2,Cc1ccn2cc(-c3ccc(NS(=O)(=O)c4ccccc4Cl)cc3)nc2n1,642 s
3,CCc1nc2cc(-c3noc(-c4nccc5ccccc45)n3)ccc2o1,1130 s
4,CCc1ccc(-c2ccc(=O)n(CCc3nc(-c4ccc(F)cc4)no3)n2)cc1,1120 s
5,CCC(C)NC(=O)Cn1nc2c(Oc3ccccc3)nc3ccccc3n2c1=O (centres undefined),895 s
6,COc1cc2oc(=O)c(CC(=O)N3CCN(c4ccccn4)CC3)c(C)c2cc1OC,588 s
7,Cc1ccc(-c2noc(-c3nc(-c4cccnc4)no3)n2)cc1,1090 s
8,Cc1ccc(NC(=O)N2CCC(n3cnc4ccc(C)cc4c3=O)CC2)cc1,801 s
9,CC(=O)Oc1cc(-c2cccc(C(F)(F)F)c2)c2oc(=O)sc2c1,1030 s
10,CCOC(=O)c1noc2ncnc(N3CCC(c4ccccc4)C3)c12 (centres undefined),1030 s
11,Cc1cccc(N2CCN(C(=O)C3=CCN(Cc4cccc(F)c4)CC3)CC2)c1,690 s
12,Cn1cc(-c2nc(C(=O)NCc3cccc(C(F)(F)F)c3)cs2)c2cccnc21,983 s
13,Cc1nc(-c2ccc3c(c2)CCN3C(=O)c2n[nH]c3ccccc23)cs1,959 s
14,O=S(=O)(c1ccc(F)cc1F)N1CCc2nc(-c3ccc(Cl)cc3)ncc2C1,1200 s
15,COc1cc(C)c(C)cc1S(=O)(=O)Nc1ccc2c(c1)C(=O)NCCO2,678 s
16,CS(=O)(=O)c1ccc(Nc2ncccc2S(N)(=O)=O)cc1,668 s
17,CCn1cc(C2=CCN(S(=O)(=O)c3ccc(C)c(Cl)c3)CC2)c2cccnc21,1180 s
18,COc1ccccc1CNC(=O)C1CCCN(c2nnc3cccc(C)n23)C1 (centres undefined),688 s
19,COc1ccc(NC(=O)NCC2(CO)CC2)cc1OC,581 s
20,O=C(NCc1cccs1)C1CCN(S(=O)(=O)c2cc(C(=O)N3CCCCCC3)cs2)CC1,861 s
21,CCN1CCN(CCCNC(=O)c2nc(-c3oc4ccccc4c3C)no2)CC1,621 s
22,COC(=O)c1ccccc1NC(=O)Cn1c(=O)n(-c2ccc(F)cc2)c(=O)c2c1cc(C)n2C,933 s
23,Cc1cc(NS(=O)(=O)c2cc(-c3[nH]ncc3C(=O)N3CCCC3)oc2C)ccc1F,730 s

row,SMILES,RP-LC retention time
1,CCn1c(=O)sc2cc(S(=O)(=O)N3CCC(C(=O)NC4CCCCC4)CC3)ccc21,876 s
2,COc1ccc(C2CCCN2C(=O)c2c(Br)cnn2C)cc1 (centres undefined),841 s
3,CC(C)NCc1ccc(-c2ccc(F)cc2)o1,647 s
4,Cc1ccc(CN2CCN(CC(=O)Nc3ccc(C)cc3)C(=O)C2=O)cc1,786 s
5,COc1ccc(C(=O)Nc2cccn3cnnc23)cc1F,676 s
6,Cc1ccc(-c2cc3n(n2)CCCN(C(=O)Cc2ccsc2)C3)cc1,857 s
7,O=C(c1cccn1Cc1noc(C2CC2)n1)N1CCN(c2ccccc2)CC1,946 s
8,Cc1ccc(S(=O)(=O)[C@H]2CS(=O)(=O)C[C@@H]2N2CCN(c3ccccc3)CC2)cc1,920 s
9,Cc1c(CC(=O)N2CCC(C(N)=O)CC2)c(=O)oc2cc3occ(C(C)(C)C)c3cc12,785 s
10,Cc1ccc(NC(=O)N2CCC(n3cnc4c(Cl)cccc4c3=O)CC2)cc1C,877 s
11,CSc1cccc(NC(=O)Cn2c(=O)n(-c3ccccc3)c(=O)c3c2cc(C)n3C)c1,861 s
12,Cc1cccn2cc(C(=O)NCc3ccc(Cl)cc3)nc12,704 s
13,Cc1ccn2cc(-c3ccc(NS(=O)(=O)c4ccc(-c5csc(C)n5)s4)cc3)nc2n1,679 s
14,CN1CCN(CCNC(=O)c2ccc(NC(=O)C3=CSCCO3)cc2)CC1,754 s
15,CCCCNC(=O)Cn1c(=O)c2cnc(-c3ccc(Cl)cc3)nc2n(CC)c1=O,1050 s
16,CCOC(=O)C1CCC(CNC(=O)Nc2cccc(-c3nnc(-c4ccccc4)o3)c2)CC1 (centres undefined),975 s
17,CC1(O)CCOC2(CCN(C(=O)c3ccc(Br)o3)CC2)C1 (centres undefined),690 s
18,Cc1ccc(-c2noc(CSc3nc4cc5c(cc4c(=O)n3-c3ccc(F)cc3)OCO5)n2)cc1,1200 s
19,O=S(=O)(c1cc(-c2nnc(C3CC3)o2)co1)N1CCCCC1,839 s
20,CC(C)N1C(=O)C(C)(C(=O)Nc2ccc(F)c(Cl)c2)Oc2cccnc21 (centres undefined),1070 s
21,CCOc1ccc(S(=O)(=O)N2CC(=O)N(C3CCCC3)C3(CCCCC3)C2)cc1,1230 s
22,CC(=O)c1ccc(NC(=O)COc2cc(C)nc(-c3ccc(F)cc3)n2)cc1,938 s
23,CN(C)c1cnc(-n2cc(NC(=O)c3ccc(C#N)cc3)cn2)nc1,716 s

row,SMILES,RP-LC retention time
1,CCn1cc(-c2nc(-c3ccc(OC)c(OC)c3)no2)c(=O)c2cc(F)ccc21,811 s
2,CCC1=C(c2ccc(C)cc2)S(=O)(=O)N=C1N1CCC(C(=O)NCCCOC(C)C)CC1,844 s
3,Cc1sc(NC(=O)Cc2ccccc2)nc1-c1ccc2c(c1)N(C)C(=O)CO2,926 s
4,Cc1cc(C(=O)NC(C)C)nn1C,628 s
5,O=C(Nc1ccc2cn[nH]c2c1)c1ccc2nc[nH]c2c1,541 s
6,CCc1noc(-c2cccnc2N2CCCN(Cc3ccc(Br)cc3)CC2)n1,730 s
7,Cc1cc(C)n(CCN2CCN(C(=O)Cc3cccs3)CC2)n1,548 s
8,CCN1CCN(CCNC(=O)c2cc3n(n2)CCCN(Cc2ccc(F)cc2)C3=O)CC1,593 s
9,O=C(NC1COc2ccccc2C1)N1CCN(c2ccccn2)CC1 (centres undefined),616 s
10,CCCCN1CCN(C(=O)C2CCN(c3nnc(-c4ccc(C)cc4)o3)CC2)CC1,632 s
11,O=C(Nc1ccccc1)C1(CCO)CCN(Cc2ccccc2)C1 (centres undefined),624 s
12,O=c1c2cc3c(cc2nc(SCc2nc(-c4ccccc4)no2)n1-c1ccc(F)cc1)OCO3,1140 s
13,O=C(CCc1c(-c2ccc(F)cc2)nc2ccccn12)N1CCN(c2ccccc2F)CC1,694 s
14,Cc1ccc(-n2nnnc2CNS(=O)(=O)c2ccc(F)cc2F)cc1,792 s
15,Cc1ccc(CNC(=O)C(C)n2nc(C)c3nn(-c4ccccc4)c(C)c3c2=O)o1 (centres undefined),807 s
16,Cc1ccc(NC(=O)NC2CCN(c3ccc(F)cc3)C2=O)c(C)c1 (centres undefined),778 s
17,CCN(CC)C(=O)c1ccc2c(c1)N(CC(=O)N1CCCC1)C(=O)C1CCCCN21 (centres undefined),753 s
18,Oc1ccc2c3c1O[C@H]1c4oc5ccccc5c4C[C@@]4(O)[C@@H](C2)N(CC2CC2)CC[C@]314,673 s
19,CCOc1ccc(NC(=O)C2CCCN(c3ncnc4c3oc3ccccc34)C2)cc1 (centres undefined),816 s
20,Cc1cc2c(c(=O)n(-c3ccccc3)c(=O)n2CC(=O)Nc2ccc3c(c2)OCO3)n1C,760 s
21,CCc1nc(-c2csc(S(=O)(=O)N3CCC(C(=O)NCC4CCCO4)CC3)c2)no1 (centres undefined),764 s
22,O=C(NCCc1csc(-c2cccs2)n1)C1CCN(S(=O)(=O)c2ccccc2F)CC1,872 s
23,O=C(Cc1c[nH]c2ccccc12)N1CCC(c2nc(C3CC3)no2)C1 (centres undefined),764 s

row,SMILES,RP-LC retention time
1,COc1cc(C(=O)NC2CCCNC2)cc(OC)c1OC (centres undefined),621 s
2,COCCCNC(=O)c1sc2ncn(CC(=O)N3CC(C)CC(C)C3)c(=O)c2c1C (centres undefined),713 s
3,O=C(Nc1cn(-c2ccc(C(=O)N3CCN(c4ccccc4)CC3)cc2)cn1)C1CC1,728 s
4,Cc1ccc2nc(-c3ccc(N(C)C)cc3)c(Nc3ccc4c(c3)OCCO4)n2c1,726 s
5,COCCN(CC1(C)CCOCC1)C(=O)c1ccc(Cl)cc1,838 s
6,COc1ccc(-c2ccc3c(N4CCOC[C@@H]4C)nc(N4CCOC[C@@H]4C)nc3n2)cc1CO,698 s
7,CCc1nc(-c2cc(S(=O)(=O)NCC(=O)N3CCCC3)c(C)s2)no1,787 s
8,COc1ccccc1NC(=O)N1CCN(Cc2nc3ccc(Cl)cc3o2)CC1,731 s
9,Cc1ccc(CNC(=O)CSc2nc3nc(C)cc(C)n3n2)cc1,697 s
10,O=C(NCc1ccco1)C1CCN(c2cnn(Cc3ccccc3)c(=O)c2)CC1,723 s
11,CCC(Sc1nnc2n1CCN2c1ccc(OC)cc1)C(=O)OC (centres undefined),735 s
12,CCCn1c(=O)c(C)nc2cc(-c3noc(COc4ccccc4)n3)ccc21,1070 s
13,COc1cccc(-c2ccc(=O)n(Cc3nc(-c4ccccc4Cl)no3)n2)c1,931 s
14,O=C(NCCc1c[nH]c2ccccc12)C(=O)NCC(c1ccco1)N1CCOCC1 (centres undefined),582 s
15,CC(C)(C)CC(=O)N1CCN(c2nc(CN3CCCCCC3)cs2)CC1,668 s
16,Cc1csc(-c2nnc(Nc3ccc(Oc4ncccc4-c4ccnc(N)n4)cc3)c3ccccc23)c1,731 s
17,O=C(Nc1cc(F)cc(F)c1)Nc1cccc(-c2ccc(N3CCOCC3)nn2)c1,748 s
18,CCc1nnc2ccc(S(=O)(=O)Nc3ccc(F)cc3)cn12,707 s
19,CCn1cc(C(=O)N2CCC3(CCC3O)CC2)cn1 (centres undefined),598 s
20,O=C(c1ccc(Br)o1)N1CCC(Cc2nnc(-c3ccccc3)o2)CC1,881 s
